Measurements reported in the NIST ThermoML archive (doi:10.1016/j.jct.2012.11.020).
± gives the expanded uncertainty stated by the source.

Experiment: xn = mol fraction of the nth substance listed
Conditions: 100 kPa, Liquid; for electrical conductivity: Alternating current cell with electrodes; for viscosity: Cone and plate viscometry; for mass density: Vibrating tube method

C1CC[NH2+]C1.O=[N+]([O-])[O-] [pyrrolidinium nitrate] + CC1COC(=O)O1
Conditions	electrical conductivity [S/m]	mass density [kg/m3]	viscosity [mPa·s]
258.15 K, x1 = 0.3	0.387 ± 0.031	–	–
260.15 K, x1 = 0.1	0.142 ± 0.011	–	–
260.15 K, x1 = 0.22	0.315 ± 0.025	–	–
262.15 K, x1 = 0.5	0.673 ± 0.054	–	–
263.15 K, x1 = 0.3	0.481 ± 0.038	–	–
266.45 K, x1 = 0.22	0.376 ± 0.03	–	–
268.15 K, x1 = 0.1	0.207 ± 0.017	–	–
268.15 K, x1 = 0.3	0.585 ± 0.047	–	–
268.15 K, x1 = 0.5	0.91 ± 0.073	–	–
270.15 K, x1 = 0.8	0.0803 ± 0.0064	–	–
273.15 K, x1 = 0.1	0.243 ± 0.019	–	–
273.15 K, x1 = 0.22	0.446 ± 0.036	–	–
273.15 K, x1 = 0.3	0.694 ± 0.056	–	–
273.15 K, x1 = 0.5	1.1 ± 0.088	–	–
273.15 K, x1 = 0.8	0.118 ± 0.009	–	–
278.15 K, x1 = 0.1	0.281 ± 0.022	–	–
278.15 K, x1 = 0.22	0.505 ± 0.04	–	–
278.15 K, x1 = 0.3	0.807 ± 0.065	–	–
278.15 K, x1 = 0.5	1.19 ± 0.095	–	–
278.15 K, x1 = 0.8	0.206 ± 0.017	–	–
283.15 K, x1 = 0.1	0.322 ± 0.026	1221 ± 2.4	5.97
283.15 K, x1 = 0.22	0.562 ± 0.045	1225.2 ± 2.5	7.55
283.15 K, x1 = 0.3	0.92 ± 0.074	1227.5 ± 2.5	9.98
283.15 K, x1 = 0.4	–	1229.8 ± 2.5	14.1
283.15 K, x1 = 0.5	1.49 ± 0.12	1231.5 ± 2.5	18.85
283.15 K, x1 = 0.62	–	1233 ± 2.5	23.36
283.15 K, x1 = 0.7	–	1233.3 ± 2.6	28.76
283.15 K, x1 = 0.8	0.352 ± 0.028	1234 ± 2.6	35.56
283.15 K, x1 = 1	–	1235 ± 2.8	58.87
284.15 K, x1 = 1	2.93 ± 0.23	–	–
288.15 K, x1 = 0.1	0.362 ± 0.029	–	–
288.15 K, x1 = 0.22	0.606 ± 0.048	–	–
288.15 K, x1 = 0.3	1.04 ± 0.083	–	–
288.15 K, x1 = 0.5	1.7 ± 0.14	–	–
288.15 K, x1 = 0.8	0.644 ± 0.052	–	–
293.15 K, x1 = 0.1	0.405 ± 0.032	1211 ± 2.4	4.71
293.15 K, x1 = 0.22	0.702 ± 0.056	1215.8 ± 2.4	5.73
293.15 K, x1 = 0.3	1.17 ± 0.093	1218.5 ± 2.4	7.37
293.15 K, x1 = 0.4	–	1221.2 ± 2.5	10.17
293.15 K, x1 = 0.5	1.91 ± 0.15	1223.1 ± 2.5	13.06
293.15 K, x1 = 0.62	–	1225 ± 2.5	17.16
293.15 K, x1 = 0.7	–	1225.6 ± 2.5	20.39
293.15 K, x1 = 0.8	1.44 ± 0.12	1226.5 ± 2.6	24.65
293.15 K, x1 = 1	3.71 ± 0.3	1228 ± 2.7	40.29
298.15 K, x1 = 0.1	0.449 ± 0.036	–	–
298.15 K, x1 = 0.22	0.745 ± 0.06	–	–
298.15 K, x1 = 0.3	1.3 ± 0.1	–	–
298.15 K, x1 = 0.5	2.13 ± 0.17	–	–
298.15 K, x1 = 0.8	2.49 ± 0.2	–	–
298.15 K, x1 = 1	4.22 ± 0.34	–	–
303.15 K, x1 = 0.1	0.497 ± 0.04	1200.9 ± 2.4	3.6
303.15 K, x1 = 0.22	0.832 ± 0.067	1206.4 ± 2.4	4.5
303.15 K, x1 = 0.3	1.44 ± 0.12	1209.5 ± 2.4	5.71
303.15 K, x1 = 0.4	–	1212.6 ± 2.4	7.73
303.15 K, x1 = 0.5	2.37 ± 0.19	1214.9 ± 2.5	9.78
303.15 K, x1 = 0.62	–	1216.9 ± 2.5	12.55
303.15 K, x1 = 0.7	–	1218 ± 2.5	15.17
303.15 K, x1 = 0.8	2.8 ± 0.22	1218.9 ± 2.6	18.53
303.15 K, x1 = 1	–	1220.4 ± 2.7	28.81
304.15 K, x1 = 1	4.94 ± 0.4	–	–
308.15 K, x1 = 0.1	0.546 ± 0.044	–	–
308.15 K, x1 = 0.22	0.93 ± 0.074	–	–
308.15 K, x1 = 0.3	1.59 ± 0.13	–	–
308.15 K, x1 = 0.5	2.62 ± 0.21	–	–
308.15 K, x1 = 0.8	3.13 ± 0.25	–	–
313.15 K, x1 = 0.1	0.597 ± 0.048	1191 ± 2.4	2.66
313.15 K, x1 = 0.22	1.03 ± 0.082	1197 ± 2.4	3.64
313.15 K, x1 = 0.3	1.74 ± 0.14	1200.6 ± 2.4	4.57
313.15 K, x1 = 0.4	–	1204.1 ± 2.4	6.07
313.15 K, x1 = 0.5	2.88 ± 0.23	1206.7 ± 2.4	7.59
313.15 K, x1 = 0.62	–	–	9.6
313.15 K, x1 = 0.7	–	–	11.72
313.15 K, x1 = 0.8	3.46 ± 0.28	–	14.49
313.15 K, x1 = 1	5.97 ± 0.48	–	20.91
